This is an account of results in patent EP4775580A1, “COMPOUND, PHARMACEUTICAL COMPOSITION COMPRISING SAME, AND USE THEREOF” (Euregen Biopharma Co., Ltd., priority 2023, dated 2025).

Series [1] is described as follows: Pharmacokinetics in rats after single IV and PO administration (LC-MS/MS). It is filed as in vivo, male SD rats. The note with it: SD rats. The procedure:
• 1. Objective: This study aimed to characterize the pharmacokinetic properties of selected compounds from the examples of the present invention in SD rats following single intravenous (IV) injection and oral (PO) administration using LC-MS/MS methodology. • 2. Experimental Materials: Test compounds were prepared according to the examples of the present invention; male SD rats were obtained from the Laboratory Animal Department of Shanghai Institute of Planned Parenthood Research (License No. SCXK(Shanghai)2018-0006) or Shanghai Jihui Laboratory Animal Breeding Co., Ltd. (License No. SCXK(Shanghai)2022-0009). • 3. Experimental Methods: Preparation of 0.5% methylcellulose: 5 g of methylcellulose was weighed and dissolved in 1000 mL of purified water. Preparation of 0.5% methylcellulose (pH = 5.03): 5 g of methylcellulose was weighed and dissolved in 1000 mL of purified water, and the pH was adjusted to 5.03 with 100 mM citric acid.
Preparation of oral formulations: The required amount of test compound was weighed and dissolved in 0.5% methylcellulose solution or 0.5% methylcellulose (pH = 5.03) to obtain a suspension or solution at 1 or 3 mg/mL.
Preparation of intravenous injection formulations: The required amount of test compound (EB229, EB300, EB341, EB342) was weighed and dissolved in 0.5 mL dimethyl sulfoxide to prepare a 4 mg/mL solution. To 0.25 mL of this solution, 0.5 mL of polyethylene glycol 15-hydroxystearate (Solutol) and 4.25 mL of normal saline were added to obtain a 0.2 mg/mL solution. For EB834, 6 mg was weighed and dissolved in 0.1 mL dimethyl sulfoxide, followed by addition of 0.2 mL polyethylene glycol 15-hydroxystearate (Solutol) and 1.7 mL normal saline to obtain a 3 mg/mL solution.
Dosing: Male SD rats were fasted overnight prior to oral (PO) administration; fasting was not required for the single intravenous (IV) injection group. Food was provided 4 hours post-dosing.
Sample Collection: Blood was collected from the jugular vein or other suitable veins, with 0.2 mL collected at each time point. Samples were placed in tubes containing dipotassium ethylenediaminetetraacetate and kept on ice prior to centrifugation. Within 1 hour of blood collection, samples were centrifuged at 6800 × g for 6 minutes at 2-8°C and stored at -80°C.

Series [2] has as its target T1, Menin-G331R (Homo sapiens, UniProt O00255, G326R).
T1 sequence (O00255 1-615 isoform O00255-1 G331R): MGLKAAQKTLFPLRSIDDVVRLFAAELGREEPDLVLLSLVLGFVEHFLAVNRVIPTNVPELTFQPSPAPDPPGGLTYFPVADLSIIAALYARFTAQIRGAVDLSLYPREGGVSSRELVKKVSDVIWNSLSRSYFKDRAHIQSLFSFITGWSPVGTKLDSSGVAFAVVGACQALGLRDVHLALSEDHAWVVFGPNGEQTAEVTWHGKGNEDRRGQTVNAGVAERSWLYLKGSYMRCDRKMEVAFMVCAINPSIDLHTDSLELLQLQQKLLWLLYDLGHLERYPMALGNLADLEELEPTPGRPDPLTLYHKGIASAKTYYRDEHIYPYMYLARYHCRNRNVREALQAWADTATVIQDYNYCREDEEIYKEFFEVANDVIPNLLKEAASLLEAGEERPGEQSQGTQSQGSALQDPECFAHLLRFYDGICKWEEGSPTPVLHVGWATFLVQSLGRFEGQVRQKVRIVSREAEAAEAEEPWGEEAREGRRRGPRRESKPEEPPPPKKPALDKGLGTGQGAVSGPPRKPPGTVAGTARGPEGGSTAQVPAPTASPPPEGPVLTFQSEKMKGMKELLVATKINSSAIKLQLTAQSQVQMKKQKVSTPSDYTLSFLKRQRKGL
The series can be described thus: Fluorescence polarization assay of Menin binding to MLL peptide, G331R mutant. The note with it: FP, 8 nM Menin, 4 nM MLL peptide. The source says:
• 1. Objective: To evaluate the inhibitory activity of compounds against wild-type Menin protein (Menin-WT) and its mutant variants (Menin-M327V, Menin-M327I, Menin-T349M, Menin-S160T, Menin-S160C, Menin-G331R, and Menin-G331D). • 2. Experimental Principle: The experiment employed fluorescence polarization (FP) to detect the binding of wild-type Menin protein and its mutant variants to MLL peptide. In the absence of inhibitors, binding of wild-type Menin protein and its mutant variants to MLL peptide generates a high FP signal; upon addition of inhibitors, the binding between Menin proteins and MLL peptide is disrupted, resulting in a low FP signal. • 3. Experimental Materials: Final concentration of wild-type Menin protein and its mutant variants: 8 nM; final concentration of MLL peptide: 4 nM. Assay buffer: 50 mM Tris-HCl (pH 8.0), 120 mM NaCl, 0.005% CA-630, 2 mM DTT. • 4. […] The plate was centrifuged at 1000 rpm for 60 seconds. Subsequently, 10 µL of MLL peptide was added to each assay well. The plate was centrifuged at 1000 rpm for 60 seconds and sealed with a sealing membrane. After incubation at 23°C for 60 minutes, the plate was read using a PerkinElmer Envision reader. Data Analysis: [formula]
Curve fitting: XLFIT software was used for curve fitting, employing a four-parameter logistic model with percent inhibition versus log(compound concentration) as variables.

Like-named read-outs stand apart in the source and are kept apart here.

The term AUC(0-t) denotes the area under the concentration-time curve up to a stated or last time point. As a reminder, the Cmax is the highest concentration seen after dosing. One may read the IC50 as the concentration that gives 50% inhibition. Lower therefore signals greater potency. Take `CCN(C(=O)c1cc(F)ccc1N1CCN([C@@H]2CCN([C@H](CCCN(C)CCOC)C(C)C)C2)c2ncncc21)C(C)C` [Example 3]: the “PO F” value in series [1] (PO 30 mg/kg vs IV 3 mg/kg) worked out at 172%. Besides, the AUC(0-t) in series [1] (rat, in vivo, IV 3 mg/kg, read-out: IV AUC(0-t)) is 494 ng·h/mL; in series [1] (rat, in vivo, PO 30 mg/kg, 0.5% MC (pH 5.03), read-out: PO AUC(0-t)), 8500 ng·h/mL. Further, in series [1] (rat, in vivo, IV 3 mg/kg, read-out: IV CL), the clearance is 59.2 mL/min/kg. The Cmax in series [1] (rat, in vivo, IV 3 mg/kg, read-out: IV Cmax) came out at 193 ng/mL; in series [1] (rat, in vivo, PO 30 mg/kg, 0.5% MC (pH 5.03), read-out: PO Cmax) it was 1140 ng/mL. Also, in series [1] (rat, in vivo, IV 3 mg/kg, read-out: IV Vss), the Vd was 203 L/kg. Further, the half-life was 52.9 h in series [1] (rat, in vivo, IV 3 mg/kg, read-out: IV t1/2 (converted)) and 21.3 h in series [1] (rat, in vivo, PO 30 mg/kg, 0.5% MC (pH 5.03), read-out: PO t1/2 (converted)). In series [2], the IC50 is 36.7 nM.

Take `CCN(C(=O)c1cc(F)ccc1Oc1cncnc1N1CC2(CCN(C[C@H]3CC[C@H](NS(=O)(=O)CC)CC3)CC2)C1)C(C)C` [SNDX-5613, revumenib]: the IC50 in series [2] came out at 101 nM.
